From patent publication US12240862B2, “Inhibitors of peptidylarginine deiminases” (Gilead Sciences, Inc., priority 2020, dated 2025)

These compounds were tested against T1, human PAD4 (Homo sapiens, UniProt Q9UM07) (assay: In vitro PAD4 BAEE biochemical assay). Settings: human PAD4, BAEE substrate; 5 nM PAD4, 2 mM calcium chloride, 3 mM BAEE; geometric mean of multiple experiments.
T1 construct: human PAD4 (NM_012387), A2P663, was PCR amplified; His-SUMO (N, cleaved yes); made in house; host or cells: E. coli BL21(DE3)
T1 sequence (Q9UM07 2-663): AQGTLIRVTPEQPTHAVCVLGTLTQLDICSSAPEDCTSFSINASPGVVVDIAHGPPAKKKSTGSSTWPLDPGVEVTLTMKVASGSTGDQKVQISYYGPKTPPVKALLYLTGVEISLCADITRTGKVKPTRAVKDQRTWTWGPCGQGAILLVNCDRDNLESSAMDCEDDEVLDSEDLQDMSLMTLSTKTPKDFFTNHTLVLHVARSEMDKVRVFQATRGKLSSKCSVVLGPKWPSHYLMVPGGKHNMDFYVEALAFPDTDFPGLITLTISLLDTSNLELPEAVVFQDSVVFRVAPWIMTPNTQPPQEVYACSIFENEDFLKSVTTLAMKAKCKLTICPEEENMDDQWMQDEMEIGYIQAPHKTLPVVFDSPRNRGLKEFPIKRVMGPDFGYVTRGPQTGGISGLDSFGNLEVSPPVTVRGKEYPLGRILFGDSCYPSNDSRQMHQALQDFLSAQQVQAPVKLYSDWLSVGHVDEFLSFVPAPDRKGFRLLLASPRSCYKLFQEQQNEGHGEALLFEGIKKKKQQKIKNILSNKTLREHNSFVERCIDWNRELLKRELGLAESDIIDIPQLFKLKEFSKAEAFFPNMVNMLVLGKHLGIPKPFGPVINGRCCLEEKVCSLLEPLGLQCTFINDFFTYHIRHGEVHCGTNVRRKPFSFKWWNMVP
In short: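 Ammonia generated from BAEE serves as the readout, measured by o-phthalaldehyde after EDTA termination. Final conditions: 5 nM human PAD4 (SUMO tag cleaved), 2 mM CaCl2, 3 mM BAEE, pH 7.6 MOPS buffer, 25 °C for 2 h following a 30-min compound preincubation.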

Row | IC50 [nM] | Structure (SMILES)
1 | 31.5 | COc1cc(C(=O)N2[C@H]3CC[C@@H]2[C@H](N)C3)cc2nc(-c3cc4ccc([C@@H](C)NC(=O)NCc5ncccn5)nc4n3CC3CC3)c(C)n12 [Example 224, 1-[(1~{R})-1-[2-[7-[(1~{R},2~{R},4~{S})-2-amino-7-azabicyclo[2.2.1]heptane-7-carbonyl]-5-methoxy-3-methylimidazo [1,2-a]pyridin-2-yl]-1-(cyclopropylmethyl)pyrrolo [2,3-b]pyridin-6-yl]ethyl]-3-(pyrimidin-2-ylmethyl)urea]
2 | 81.3 | COc1cc(C(=O)N2[C@H]3CC[C@@H]2[C@H](N)C3)cc2nc(-c3cc4ccc([C@@H](C)NC(=O)N5CC(C(N)=O)C5)nc4n3CC3CC3)c(C)n12 [Example 225, 1-~{N}-[(1~{R})-1-[2-[7-[(1~{R},2~{R},4~{S})-2-amino-7-azabicyclo[2.2.1]heptane-7-carbonyl]-5-methoxy-3-methylimidazo [1,2-a]pyridin-2-yl]-1-(cyclopropylmethyl)pyrrolo [2,3-b]pyridin-6-yl]ethyl]azetidine-1,3-dicarboxamide]
3 | 42.3 | COc1cc(C(=O)N2[C@H]3CC[C@@H]2[C@H](N)C3)cc2nc(-c3cc4ccc([C@@H](C)NC(=O)NCc5cccnc5)nc4n3CC3CC3)c(C)n12 [Example 226, 1-[(1~{R})-1-[2-[7-[(1~{R},2~{R},4~{S})-2-amino-7-azabicyclo[2.2.1]heptane-7-carbonyl]-5-methoxy-3-methylimidazo [1,2-a]pyridin-2-yl]-1-(cyclopropylmethyl)pyrrolo [2,3-b]pyridin-6-yl]ethyl]-3-(pyridin-3-ylmethyl)urea]
4 | 65.2 | COc1cc(C(=O)N2[C@H]3CC[C@@H]2[C@H](N)C3)cc2nc(-c3cc4ccc([C@@H](C)NC(=O)N5CC(O)C5)nc4n3CC3CC3)c(C)n12 [Example 227, ~{N}-[(1~{R})-1-[2-[7-[(1~{R},2~{R},4~{S})-2-amino-7-azabicyclo[2.2.1]heptane-7-carbonyl]-5-methoxy-3-methylimidazo [1,2-a]pyridin-2-yl]-1-(cyclopropylmethyl)pyrrolo [2,3-b]pyridin-6-yl]ethyl]-3-hydroxyazetidine-1-carboxamide]
5 | 48.6 | COc1cc(C(=O)N2[C@H]3CC[C@@H]2[C@H](N)C3)cc2nc(-c3cc4ccc([C@@H](C)NC(=O)N5CCC(C(=O)O)C5)nc4n3CC3CC3)c(C)n12 (stereo partly shown) [Example 228]
6 | 108 | COc1cc(C(=O)N2[C@H]3CC[C@@H]2[C@H](N)C3)cc2nc(-c3cc4ccc([C@@H](C)NC(=O)NC5COC5)nc4n3CC3CC3)c(C)n12 [Example 229, 1-[(1~{R})-1-[2-[7-[(1~{R},2~{R},4~{S})-2-amino-7-azabicyclo[2.2.1]heptane-7-carbonyl]-5-methoxy-3-methylimidazo [1,2-a]pyridin-2-yl]-1-(cyclopropylmethyl)pyrrolo [2,3-b]pyridin-6-yl]ethyl]-3-(oxetan-3-yl)urea]
7 | 70 | COc1cc(C(=O)N2[C@H]3CC[C@@H]2[C@H](N)C3)cc2nc(-c3cc4ccc([C@@H](C)NC(=O)N5CC(C)(C(=O)O)C5)nc4n3CC3CC3)c(C)n12 [Example 230, 1-[[(1~{R})-1-[2-[7-[(1~{R},2~{R},4~{S})-2-amino-7-azabicyclo[2.2.1]heptane-7-carbonyl]-5-methoxy-3-methylimidazo [1,2-a]pyridin-2-yl]-1-(cyclopropylmethyl)pyrrolo [2,3-b]pyridin-6-yl]ethyl]carbamoyl]-3-methylazetidine-3-carboxylic acid]
8 | 64.2 | COc1cc(C(=O)N2[C@H]3CC[C@@H]2[C@H](N)C3)cc2nc(-c3cc4ccc([C@@H](C)NC(=O)NC5CCOC5)nc4n3CC3CC3)c(C)n12 (stereo partly shown) [Example 231, 1-[(1~{R})-1-[2-[7-[(1~{R},2~{R},4~{S})-2-amino-7-azabicyclo[2.2.1]heptane-7-carbonyl]-5-methoxy-3-methylimidazo [1,2-a]pyridin-2-yl]-1-(cyclopropylmethyl)pyrrolo [2,3-b]pyridin-6-yl]ethyl]-3-(oxolan-3-yl)urea]
9 | 68.5 | COc1cc(C(=O)N2[C@H]3CC[C@@H]2[C@H](N)C3)cc2nc(-c3cc4ccc([C@@H](C)NC(=O)N5CC(F)(F)C5)nc4n3CC3CC3)c(C)n12 [Example 232, N—((R)-1-(2-(7-((1R,2R,4S)-2-amino-7-azabicyclo[2.2.1]heptane-7-carbonyl)-5-methoxy-3-methylimidazo[1,2-a]pyridin-2-yl)-1-(cyclopropylmethyl)-1H-pyrrolo[2,3-b]pyridin-6-yl)ethyl)-3,3-difluoroazetidine-1-carboxamide]
10 | 103 | COc1cc(C(=O)N2[C@H]3CC[C@@H]2[C@H](N)C3)cc2nc(-c3cc4ccc([C@@H](C)NC(=O)NCc5ccccc5)nc4n3CC3CC3)c(C)n12 [Example 233, 1-[(1~{R})-1-[2-[7-[(1~{R},2~{R},4~{S})-2-amino-7-azabicyclo[2.2.1]heptane-7-carbonyl]-5-methoxy-3-methylimidazo [1,2-a]pyridin-2-yl]-1-(cyclopropylmethyl)pyrrolo [2,3-b]pyridin-6-yl]ethyl]-3-benzylurea]
11 | 149 | COc1cc(C(=O)N2[C@H]3CC[C@@H]2[C@H](N)C3)cc2nc(-c3cc4ccc([C@@H](C)NC(=O)N5CC(C#N)C5)nc4n3CC3CC3)c(C)n12 [Example 234, ~{N}-[(1~{R})-1-[2-[7-[(1~{R},2~{R},4~{S})-2-amino-7-azabicyclo[2.2.1]heptane-7-carbonyl]-5-methoxy-3-methylimidazo [1,2-a]pyridin-2-yl]-1-(cyclopropylmethyl)pyrrolo [2,3-b]pyridin-6-yl]ethyl]-3-cyanoazetidine-1-carboxamide]
12 | 63.6 | COc1cc(C(=O)N2[C@H]3CC[C@@H]2[C@H](N)C3)cc2nc(-c3cc4ccc([C@@H](C)NC(=O)N5CCN(C)CC5)nc4n3CC3CC3)c(C)n12 [Example 235, ~{N}-[(1~{R})-1-[2-[7-[(1~{R},2~{R},4~{S})-2-amino-7-azabicyclo[2.2.1]heptane-7-carbonyl]-5-methoxy-3-methylimidazo [1,2-a]pyridin-2-yl]-1-(cyclopropylmethyl)pyrrolo [2,3-b]pyridin-6-yl]ethyl]-4-methylpiperazine-1-carboxamide]
13 | 55.6 | COc1cc(C(=O)N2[C@H]3CC[C@@H]2[C@H](N)C3)cc2nc(-c3cc4ccc([C@@H](C)NC(=O)N(C(C)C)C(C)C)nc4n3CC3CC3)c(C)n12 [Example 236, 3-[(1~{R})-1-[2-[7-[(1~{R},2~{R},4~{S})-2-amino-7-azabicyclo[2.2.1]heptane-7-carbonyl]-5-methoxy-3-methylimidazo [1,2-a]pyridin-2-yl]-1-(cyclopropylmethyl)pyrrolo [2,3-b]pyridin-6-yl]ethyl]-1,1-di(propan-2-yl)urea]
14 | 35.6 | COc1cc(C(=O)N2[C@H]3CC[C@@H]2[C@H](N)C3)cc2nc(-c3cc4ccc([C@@H](C)NC(=O)N5CC(C(=O)O)C5)nc4n3CC3CC3)c(C)n12 [Example 237]
15 | 84.4 | COc1cc(C(=O)N2[C@H]3CC[C@@H]2[C@H](N)C3)cc2nc(-c3cc4ccc([C@@H](C)NC(=O)N(C)Cc5ccccc5)nc4n3CC3CC3)c(C)n12 [Example 240, 3-[(1~{R})-1-[2-[7-[(1~{R},2~{R},4~{S})-2-amino-7-azabicyclo[2.2.1]heptane-7-carbonyl]-5-methoxy-3-methylimidazo [1,2-a]pyridin-2-yl]-1-(cyclopropylmethyl)pyrrolo [2,3-b]pyridin-6-yl]ethyl]-1-benzyl-1-methylurea]
16 | 54.5 | COc1cc(C(=O)N2[C@H]3CC[C@@H]2[C@H](N)C3)cc2nc(-c3cc4ccc([C@@H](C)NC(=O)N5CCOCC5)nc4n3CC3CC3)c(C)n12 [Example 241, ~{N}-[(1~{R})-1-[2-[7-[(1~{R},2~{R},4~{S})-2-amino-7-azabicyclo[2.2.1]heptane-7-carbonyl]-5-methoxy-3-methylimidazo [1,2-a]pyridin-2-yl]-1-(cyclopropylmethyl)pyrrolo [2,3-b]pyridin-6-yl]ethyl] morpholine-4-carboxamide]
17 | 238 | COc1cc(C(=O)N2[C@H]3CC[C@@H]2[C@H](N)C3)cc2nc(-c3cc4ccc([C@@H](C)NC(=O)N(C)c5ccccc5)nc4n3CC3CC3)c(C)n12 [Example 242, 3-[(1~{R})-1-[2-[7-[(1~{R},2~{R},4~{S})-2-amino-7-azabicyclo[2.2.1]heptane-7-carbonyl]-5-methoxy-3-methylimidazo [1,2-a]pyridin-2-yl]-1-(cyclopropylmethyl)pyrrolo [2,3-b]pyridin-6-yl]ethyl]-1-methyl-1-phenylurea]

Row | Structure (SMILES) | IC50 [nM]
18 | COc1cc(C(=O)N2[C@H]3CC[C@@H]2[C@H](N)C3)cc2nc(-c3cc4ccc([C@@H](C)NC(=O)Nc5c(C)cccc5C)nc4n3CC3CC3)c(C)n12 [Example 238, 1-[(1~{R})-1-[2-[7-[(1~{R},2~{R},4~{S})-2-amino-7-azabicyclo[2.2.1]heptane-7-carbonyl]-5-methoxy-3-methylimidazo [1,2-a]pyridin-2-yl]-1-(cyclopropylmethyl)pyrrolo [2,3-b]pyridin-6-yl]ethyl]-3-(2,6-dimethylphenyl)urea] | 145
19 | COc1cc(C(=O)N2[C@H]3CC[C@@H]2[C@H](N)C3)cc2nc(-c3cc4ccc([C@@H](C)NC(=O)Nc5ccccc5)nc4n3CC3CC3)c(C)n12 [Example 239, 1-[(1~{R})-1-[2-[7-[(1~{R},2~{R},4~{S})-2-amino-7-azabicyclo[2.2.1]heptane-7-carbonyl]-5-methoxy-3-methylimidazo [1,2-a]pyridin-2-yl]-1-(cyclopropylmethyl)pyrrolo [2,3-b]pyridin-6-yl]ethyl]-3-phenylurea] | 81.7
